The text below walks through data of patent US20250262222A1, “HETEROCYCLIC COMPOUNDS, COMPOSITIONS THEREOF, AND METHODS OF TREATMENT THEREWITH” (BeiGene Switzerland GmbH, priority 2022, published 2025).

Data set [1] concerns pERK1/2(THR202/TYR204) level in AsPC-1 cell line. The data set can be described thus: KRAS G12D pERK assay. Type of data set: cell-based. Particulars: Homo sapiens, ASPC1, 2 h, AsPC-1 cells, 2 h compound treatment, HTRF. The method, boiled down: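 AsPC-1 (KRAS G12D) cells, 30000/well, seeded overnight, then treated 2 h with a 10-point series at 0 to 10 μM final. Lysate pERK1/2 (Thr202/Tyr204) detected by HTRF after overnight antibody incubation at room temperature; IC50 from percent inhibition versus log concentration.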
A general note: TR-FRET usually uses a lanthanide donor and a delayed reading to cut background.

Data set [2] is described as follows: Mouse and rat PK study. Conditions: compared to dibasic G12D inhibitors (e.g., Example 17). Type of data set: in vivo, male CD-1 mice or SD-JVC rats. Here is the method: The pharmacokinetics of compounds were evaluated in male CD-1 mice or SD-JVC rats via intravenous and oral administration. For intravenous administration study, test compounds were dissolved in DMA:30% Solutol HS 15(w/v): Saline (20:20:60, by volume) and injected with a 1 mg/kg dose via tail vein. For oral administration study, test compounds were dissolved in 0.5% MC or PEG400/Phosal 50 PG/EtOH (30/60/10, by volume) and administrated to mice at 10 mg/kg or 30 mg/kg by gavage. Animals will be grouped and treated according to body weight. At the time points after dosing (5 (IV only), 15, and 30 min and 1, 2, 4, 8 and 24 h after administration), Rat blood samples will be collected from JVC, Mice will be anesthetized by isoflurane and blood samples will be collected from orbital bleeding. Blood samples will be collected into 1.5 mL EDTA.K2 coated EP tube. Approximately 50 μL blood (Mouse) and 150 μL blood (Rat) were collected at each time point and placed on ice, then centrifuge at 5600 rpm 7 min at 4° C. to obtain plasma. Plasma will be transferred into new tube and stored at −20° C. or dry ice temporary. The samples will be stored at −80° C. until ex vivo PK assay.
Plasma concentrations were determined via the following sample processing method and measurement conditions. An aliquot of 10 μL sample was added with 200 μL IS (Terfenadine, 5 ng/mL) in ACN. […]

Data set [3] is described as follows: Gastrointestinal accumulation and toxicity, mono-basic vs dibasic G12D inhibitors (method not described). In kind it is in vivo. Particulars: compared to dibasic G12D inhibitors (e.g., Example 17).
In data set [4] the test system is ERK1/2 phosphorylation in SW1990 tumors. Nature of the data set: SW1990 PD studies. Type of data set: in vivo, Female NCG mice. Conditions: oral administration. Here is the method: Female NCG mice were subcutaneously implanted with 5×10^6 SW1990 cells per 200 μL PBS/matrigel in the right flank. After inoculation, when tumors reached a mean volume of approximately 350-450 mm^3 in size, mice were randomized into treatment groups. Randomized mice would receive a single dose of vehicle consisting of 0.5% MC or test compounds at various dose (e.g. 30, 50, or 100 mg/kg) by oral administration. Plasma was collected at 0.5, 2, 4, and 7 hours, and tumor was collected at 7 hours after dosing to determine exposure levels. Tumor fragments were snap frozen in homogenization tubes with liquid nitrogen and homogenized with T-PER Tissue Protein Extraction Buffer with protease and phosphatase inhibitors added fresh before use. Tumor lysates were then analyzed for ERK1/2 phosphorylation.

The term IC50 denotes the concentration at which inhibition is half-maximal. A low value points to greater potency.

The structures appear in SMILES notation.

`Nc1cc(Cl)c(C(F)(F)F)c(-c2nc3c4c(nc(OCC56COC(C5)C6)nc4c2F)N2C[C@H]4CC[C@H](N4)C2CCO3)c1` (stereo partly drawn) [Example 23, 3-((7S,10R)-13-((2-oxabicyclo[2.1.1]hexan-4-yl)methoxy)-1-fluoro-5,6,6a,7,8,9,10,11-octahydro-4-oxa-3,11a,12,14,15-pentaaza-7,10-methanocyclohepta[4,5]cycloocta[1,2,3-de]naphthalen-2-yl)-5-chloro-4-(trifluoromethyl)aniline] came in with an IC50 in data set [1] of 114 nM. Moreover, in data set [2], the oral exposure result was “enhanced oral exposure”. Besides, in data set [3], the gastrointestinal accumulation entry was “reduced gastrointestinal accumulation” and the toxicity entry is on record as “reduced toxicity”.

Compound `Nc1cc(Cl)c(C(F)(F)F)c(-c2nc3c4c(nc(OCC56CCC(CC5)OC6)nc4c2F)N2C[C@H]4CC[C@H](N4)[C@H]2CCO3)c1` [Example 40, 3-((6aR,7S,10R)-13-((2-oxabicyclo[2.2.2]octan-4-yl)methoxy)-1-fluoro-5,6,6a,7,8,9,10,11-octahydro-4-oxa-3,11a,12,14,15-pentaaza-7,10-methanocyclohepta[4,5]cyclo-octa[1,2,3-de]naphthalen-2-yl)-5-chloro-4-(trifluoromethyl)aniline] came in with an IC50 in data set [1] of 303 nM. For the same compound, the oral pharmacodynamic effects entry in data set [4] is given as “enhanced oral pharmacodynamic effects”.

As to `Nc1cc(Cl)c(C(F)(F)F)c(-c2nc3c4c(nc(OCC56CCC(C5)OC6)nc4c2F)N2C[C@H]4CC[C@H](N4)[C@H]2CCO3)c1` [Example 41, 3-((6aR,7S,10R)-13-((2-oxabicyclo[2.2.1]heptan-4-yl)methoxy)-1-fluoro-5,6,6a,7,8,9,10,11-octahydro-4-oxa-3,11a,12,14,15-pentaaza-7,10-methanocyclohepta[4,5]cyclo-octa[1,2,3-de]naphthalen-2-yl)-5-chloro-4-(trifluoromethyl)aniline], half-maximal inhibition in data set [1] (IC50) was put at 112 nM. The oral pharmacodynamic effects result in data set [4] is “enhanced oral pharmacodynamic effects”.
